Broadly, the MIC is the lowest concentration that inhibits growth of the organism. As a reminder, the half-life is the time in which the quantity being followed falls by half. One may read the inhibition as the relative decrease from the control value, in per cent.

≈ marks a conversion by molar mass, not a printed value.

16 molecules from ChEMBL document CHEMBL4613212, “Insights of synthetic analogues of anti-leprosy agents” (Bioorg Med Chem, 2019) can be followed below.

The subject of series [1] is Mycolicibacterium smegmatis. Kind of series: Antimicrobial activity against Mycobacterium smegmatis incubated for 30 to 32 hrs under shaking condition relative to control. In kind it is functional.
Series [2] has as its system Mycolicibacterium smegmatis. Kind of series: Antimicrobial activity against Mycobacterium smegmatis incubated for 30 to 32 hrs under shaking condition. In kind it is functional.
A short description of series [3]: Half life in rat at 400 mg/kg, sc administered as single dose. Particulars: in vivo. In kind it is ADME, organism-based.
The subject of series [4] is Plasmodium berghei. Put plainly: Antimalarial activity against Plasmodium berghei infected in albino mouse assessed survival against infection at 400 mg/kg, sc administered as single dose. It is filed as functional.
Series [5] deals with Mycobacterium leprae. Put plainly: Anti-leprotic activity against Mycobacterium leprae infected in albino mouse assessed survival against infection at 400 mg/kg, sc administered 58 days post-infection and subsequent compound dosing at 200 mg/kg at 0.5, 1 or 2 months interval. It is filed as functional.
A short description of series [6]: Drug excretion in rat urine at 400 mg/kg, sc administered as single dose measured after 30 days. In kind it is ADME, organism-based. As to conditions: read-out: Drug excretion.
The test system of series [7] is Rattus norvegicus. Kind of series: Effect of metallo-protein haemoglobin in rat assessed as peak methemoglobin level at 400 mg/kg, sc administered as single dose. In kind it is ADME, organism-based. Particulars: in vivo.
Series [8] is described as follows: Drug concentration in rat blood at 400 mg/kg, sc administered as single dose. It is filed as ADME, organism-based. Particulars: in vivo.
In series [9] the test system is Mycobacterium leprae. Kind of series: Anti-leprotic activity against Mycobacterium leprae infected in 538 CBA mouse assessed as number of Mycobacterium leprae in paw pads at 6 mg/kg administrated via gastric tube 5 times a week and measured 7 months post infection. In kind it is functional.
Series [10] relates to Mycobacterium leprae. Put plainly: Anti-leprotic activity against Mycobacterium leprae infected in 538 CBA mouse assessed as number of Mycobacterium leprae in paw pads at 2 mg/kg administrated via gastric tube 5 times a week and measured 7 months post infection. In kind it is functional.
In series [11] the test system is Escherichia coli. Kind of series: Antimicrobial activity against Escherichia coli assessed as zone of inhibition incubated for 20 hrs by agar well diffusion assay. In kind it is functional. Background: A growth-free zone around the sample is the usual read-out of agar diffusion tests.
Series [12] has as its system Staphylococcus aureus. Kind of series: Antimicrobial activity against Staphylococcus aureus assessed as zone of inhibition incubated for 20 hrs by agar well diffusion assay. It is filed as functional.
Series [13] deals with Monocyte. Kind of series: Antiinflammatory activity in human monocytes assessed as inhibition of LPS-induced TNFaplha production at 25 uM preincubated for 15 mins followed by LPS addition and measured after 4 hrs by ELISA relative to control. In kind it is functional.
The test system of series [14] is Monocyte. Kind of series: Antiinflammatory activity in human monocytes assessed as inhibition of LPS-induced TNFaplha production at 50 uM preincubated for 15 mins followed by LPS addition and measured after 4 hrs by ELISA relative to control. It is filed as functional.
Series [15] can be described thus: Cytotoxicity against LPS-induced human monocytes assessed as cell viability at 50 uM by tryphan blue staining based assay relative to control. As to conditions: read-out: Activity. More on the design: species or system Monocyte.
The subject of series [16] is Mycolicibacterium smegmatis. Put plainly: Antimycobacterial activity against DDS resistant Mycobacterium smegmatis ATCC 607 […]. In kind it is functional.
The test system of series [17] is Mycobacterium leprae. Put plainly: Anti-leprotic activity against Mycobacterium leprae infected in BALB/c mouse assessed as time delay in bacterial multiplication in footpad at 0.01 g/100g of diet administered via feed starting 60 or 75 day post infection up to 90 days by Shepard's kinetic method. It is filed as functional.
The subject of series [18] is Mycolicibacterium smegmatis. Put plainly: Antimycobacterial activity against DDS sensitive Mycobacterium smegmatis ATCC 607 […]. In kind it is functional.
Series [19] relates to Mycobacterium leprae. Put plainly: Inhibition of PGL1 synthesis in Mycobacterium leprae infected Swiss Webster mouse macrophages assessed as decrease in [U-14C]PA incorporation at 2 uM preincubated for 4 days post infection followed by [U-14C]PA addition and measured after 7 days by liquid scintillation counter analysis relative to control. It is filed as functional.
In series [20] the test system is Mycobacterium leprae. Kind of series: Inhibition of PGL1 synthesis in Mycobacterium leprae infected Swiss Webster mouse macrophages assessed as decrease in [U-14C]PA incorporation at 20 uM preincubated for 4 days post infection followed by [U-14C]PA addition and measured after 7 days by liquid scintillation counter analysis relative to control. In kind it is functional.

Series [21] deals with Mycobacterium tuberculosis. Put plainly: Antitubercular activity against Mycobacterium tuberculosis H37Rv ATCC 27294 assessed as inhibition of [3H]-thymidine incorporation relative to control. It is filed as functional. (Incorporation of labelled thymidine or its analogues reports DNA synthesis.)
The nature of series [22]: Selectivity index, ratio of IC50 for African green monkey Vero cells to MIC for antitubercular activity against Mycobacterium tuberculosis H37Rv. It is filed as toxicity. Particulars: Vero cells, read-out: Selectivity Index.
For series [23], the system named is Mycobacterium tuberculosis. Put plainly: Antitubercular activity against Mycobacterium tuberculosis H37Rv ATCC 27294 assessed as growth inhibition at 6.25 ug/ml by microplate alamar blue assay relative to control. In kind it is functional. (In general: The colour change of resazurin is a common sign of viable cells or microbes.)
For series [24], the system named is Mycolicibacterium aurum. Kind of series: Antimicrobial activity against Mycobacterium aurum incubated for 24 hrs by broth microdilution assay. In kind it is functional.
For series [25], the system named is Mycolicibacterium smegmatis. Kind of series: Antimicrobial activity against Mycobacterium smegmatis incubated for 24 hrs by broth microdilution assay. It is filed as functional.
In series [26] the test system is Mycolicibacterium vaccae. Put plainly: Antimicrobial activity against Mycobacterium vaccae incubated for 24 hrs by broth microdilution assay. It is filed as functional.
For series [27], the system named is Mycolicibacterium fortuitum. Kind of series: Antimicrobial activity against Mycobacterium fortuitum incubated for 24 hrs by broth microdilution assay. It is filed as functional.
The subject of series [28] is Mycobacterium leprae. Put plainly: Anti-leprotic activity against Mycobacterium leprae infected in CBA mouse assessed as number of Mycobacterium leprae in paw pads at 10 mg/kg administrated 5 times a week and measured 7.5 months post infection (reference value: 3.91 +/- 0.33 10^5). In kind it is functional.
For series [29], the system named is Mycobacterium leprae. Put plainly: Anti-leprotic activity against Mycobacterium leprae infected in CBA mouse assessed as number of Mycobacterium leprae in paw pads at 30 mg/kg administrated 5 times a week and measured 7.5 months post infection (reference value: 3.91 +/- 0.33 10^5). It is filed as functional.

Take `CCn1cc(C(=O)N/N=C\c2c(Cl)cccc2Cl)c(=O)c2cc(F)c(N3CCN(C)CC3)cc21`: the Activity in series [1] is recorded as greater than 30%. In [2], this molecule yielded an MIC of 27 µM (≈ 13.6 µg/mL).

On to `CC(=O)Nc1ccc(S(=O)(=O)c2ccc(NC(C)=O)cc2)cc1` [ACEDAPSONE], for which the half-life in [3] is greater than 200 days. For the same molecule, the Survival in series [4] was 12 weeks; in series [5], greater than 8 weeks. Besides, in series [6], the dose excreted at 720 h came out at 7%. Besides, in series [7], the Activity is 0 g/dL. In series [8], this molecule returned a Drug uptake of 0.2 µg/mL.

Consider `CCn1cc(C(=O)N/N=C\c2cccc(O)c2)c(=O)c2cc(F)c(N3CCN(C)CC3)cc21`, for which the Activity in series [1] is listed as greater than 30%. In addition, the MIC in series [2] was 27.2 µM (≈ 12.3 µg/mL).

On to `COc1cc(Sc2cnc(N)nc2N)cc(OC)c1Br`, for which the values for the Activity in [9] and in [10] were 0.02 ×10⁷ No_unit and 0.66 ×10⁷ No_unit, respectively.

Consider `C[C@@H](O)[C@H]1C(=N)N2C(C(=O)O)=C(SCCNC=N)C[C@H]12`, for which the “diameter of the inhibition zone (DIZ)” value in series [11] stood at 27 mm; in series [12], 25 mm.

On to `O=C1c2cccc([N+](=O)[O-])c2C(=O)N1c1cn(-c2ccccc2)c(=O)[nH]c1=O`, for which the inhibition at 25 µM in series [13] is less than 10%. Moreover, the inhibition at 50 µM in series [14] was less than 10%. Moreover, the viability at 50 µM in series [15] was 90%.

On to `CC(=O)Nc1ccc(S(=O)(=O)c2ccc(N)cc2)cc1` [MONO-N-ACETYL DAPSONE], for which the half-life in series [3] was 32 days. Moreover, the MIC in series [16] was greater than 300 µg/mL; in series [18], 13.8 µg/mL (≈ 47.5 µM). The Survival in series [4] worked out at 3.5 weeks. In addition, in series [6], the dose excreted at 720 h amounted to 50%. The Time in [17] came out at 60 days. In addition, the Activity in series [7] was 1.2 g/dL. In series [8], this molecule showed a Drug uptake of 1.3 µg/mL.

Take `CCc1cc(C(N)=S)ccn1` [ETHIONAMIDE]: the inhibition at 2 µM in [19] turned out to be 77%. Moreover, the inhibition at 20 µM in [20] turned out to be 97%.

Turning to `C[C@@H](O)[C@H]1C(=O)N2C(C(=O)O)=C(SCCNC=N)C[C@H]12` [IMIPENEM ANHYDROUS], the “diameter of the inhibition zone (DIZ)” value was determined as 35 mm in series [11] and 31 mm in [12].

For `c1ccc(Cn2cnc3c(-c4ccco4)ncnc32)cc1` [9-BENZYL-6-(FURAN-2-YL)-9H-PURINE], the “inhibition (INH)” value in [21] is reported as 59%. In addition, in series [22], the selectivity ratio is 2.7. Besides, the inhibition at 6.25 µg/mL in series [23] was greater than 90%.

For the molecule `COc1ncnc(SC(=S)N2CCCC2)c1[N+](=O)[O-]`, the MIC turned out to be 1.56 µg/mL (≈ 5.19 µM) in [24], 3.12 µg/mL (≈ 10.4 µM) in [25], 0.8 µg/mL (≈ 2.66 µM) in [26] and 1.56 µg/mL (≈ 5.19 µM) in series [27]. Besides, the Activity was determined as 0.029 ×10⁷ No_unit in series [9] and 0.07 ×10⁷ No_unit in [10].

As for `CN(C)C(=S)Sc1c([N+](=O)[O-])cc([N+](=O)[O-])nc1C#N`, the Activity amounted to 2.13 ×10⁵ No_unit in [28] and 1.83 ×10⁵ No_unit in series [29].

As to `COc1ccc(S(=O)(=O)c2ccc(N)cc2)cc1`, the MIC in series [16] is greater than 500 µg/mL; in series [18] it was 256 µg/mL (≈ 972 µM). The Time in series [17] was less than 10 days.

In turn, `CC(=O)Nc1ccc(S(=O)(=O)c2ccc(NC(C)=O)c(C)c2)cc1` had a half-life in series [3] of 35 days. Besides, the Survival is reported as 9 weeks in series [4] and greater than 8 weeks in series [5]. Moreover, the dose excreted at 720 h in series [6] is 31%. For the same molecule, in [7], the Activity came out at 1 g/dL. Moreover, the Drug uptake in series [8] came to 0.7 µg/mL.

The molecule `CC(=O)Nc1ccc(S(=O)(=O)c2ccc(/N=C/c3ccc(/C=N/c4ccc(S(=O)(=O)c5ccc(NC(C)=O)cc5)cc4)cc3)cc2)cc1` showed a half-life in series [3] of 55 days. Besides, the figures for the Survival in series [4] and in series [5] were 5 - 7 weeks and greater than 8 weeks, respectively. Further, in series [6], the dose excreted at 720 h was 40%. Besides, the Activity in [7] was found to be 0.2 g/dL. The same molecule registered a Drug uptake in [8] of 0.4 µg/mL.

For `C[C@@H](O)[C@H]1C(=O)N2C(C(=O)O)=C(SCCNC=N)O[C@H]12`, the “diameter of the inhibition zone (DIZ)” value in series [11] amounted to 31 mm; in series [12], 28 mm.
